ChEMBL document CHEMBL3745676, “Alkylamino derivatives of N-benzylpyrazine-2-carboxamide: synthesis and antimycobacterial evaluation” (Medchemcomm, 2015)

Experiments:
Format in all cases: functional
[1] = test system: Mycobacterium tuberculosis; assay: Antimycobacterial activity against multi-drug resistant Mycobacterium tuberculosis 9449/2007 after 21 days by microplate dilution method; conditions: 9449/2007, 504 h
[2] = test system: Mycobacterium tuberculosis; assay: Antimycobacterial activity against multi-drug resistant Mycobacterium tuberculosis 8666/2010 after 14 days by microplate dilution method; conditions: 8666/2010, 336 h
[3] = test system: Mycobacterium tuberculosis; assay: Antimycobacterial activity against multi-drug resistant Mycobacterium tuberculosis Praha 4 after 21 days by microplate dilution method; conditions: Praha 4, 504 h
[4] = test system: Mycobacterium tuberculosis; assay: Antimycobacterial activity against multi-drug resistant Mycobacterium tuberculosis 234/2005 after 14 days by microplate dilution method; conditions: 234/2005, 336 h
[5] = test system: Mycobacterium tuberculosis; assay: Antimycobacterial activity against multi-drug resistant Mycobacterium tuberculosis Praha 131 after 14 days by microplate dilution method; conditions: Praha 131, 336 h
[6] = test system: Mycobacterium tuberculosis; assay: Antimycobacterial activity against multi-drug resistant Mycobacterium tuberculosis Praha 131 after 21 days by microplate dilution method; conditions: Praha 131, 504 h
[7] = test system: Mycobacterium tuberculosis; assay: Antimycobacterial activity against multi-drug resistant Mycobacterium tuberculosis Praha 1 after 14 days by microplate dilution method; conditions: Praha 1, 336 h
[8] = test system: Mycobacterium tuberculosis; assay: Antimycobacterial activity against multi-drug resistant Mycobacterium tuberculosis 8666/2010 after 21 days by microplate dilution method; conditions: 8666/2010, 504 h
[9] = test system: Mycobacterium tuberculosis; assay: Antimycobacterial activity against multi-drug resistant Mycobacterium tuberculosis 7357/1998 after 14 days by microplate dilution method; conditions: 7357/1998, 336 h
[10] = test system: Mycobacterium tuberculosis; assay: Antimycobacterial activity against multi-drug resistant Mycobacterium tuberculosis 7357/1998 after 21 days by microplate dilution method; conditions: 7357/1998, 504 h
[11] = test system: Mycobacterium tuberculosis; assay: Antimycobacterial activity against multi-drug resistant Mycobacterium tuberculosis 9449/2007 after 14 days by microplate dilution method; conditions: 9449/2007, 336 h
[12] = test system: Mycobacterium tuberculosis; assay: Antimycobacterial activity against multi-drug resistant Mycobacterium tuberculosis 234/2005 after 21 days by microplate dilution method; conditions: 234/2005, 504 h
[13] = test system: Mycobacterium tuberculosis; assay: Antimycobacterial activity against multi-drug resistant Mycobacterium tuberculosis Praha 4 after 14 days by microplate dilution method; conditions: Praha 4, 336 h
[14] = test system: Mycobacterium tuberculosis; assay: Antimycobacterial activity against multi-drug resistant Mycobacterium tuberculosis Praha 1 after 21 days by microplate dilution method; conditions: Praha 1, 504 h

Measured: MIC

CCCCNc1cnc(C(=O)NCc2ccccc2)cn1
125 µM: [1] | [2] | [3] | [4] | [6] | [7] | [9] | [10]
250 µM: [8] | [12] | [14]
62.5 µM: [5] | [11] | [13]

CCCCCCCCNc1nccnc1C(=O)NCc1ccccc1
> 1000 µM: [1] | [2] | [3] | [4] | [5] | [6] | [7] | [8] | [9] | [10] | [11] | [12] | [13] | [14]

CCCCNc1nccnc1C(=O)NCc1ccccc1
125 µM: [2] | [3] | [4] | [5] | [7] | [9] | [11] | [13] | [14]
250 µM: [1] | [6] | [8] | [10] | [12]

CCCCCCCNc1nccnc1C(=O)NCc1ccccc1
> 1000 µM: [1] | [3] | [6] | [8] | [11] | [12] | [13] | [14]
1000 µM: [2] | [4] | [5] | [7] | [9] | [10]

CCCCCNc1cncc(C(=O)NCc2ccccc2)n1
32 µM: [5] | [9] | [11] | [13]
62.5 µM: [1] | [2] | [3] | [4] | [6] | [7] | [8] | [10] | [12] | [14]

CCCCCCNc1cncc(C(=O)NCc2ccccc2)n1
32 µM: [1] | [3] | [6] | [8] | [9] | [10] | [11] | [12] | [13] | [14]
16 µM: [2] | [4] | [5] | [7]

CCCCNc1cncc(C(=O)NCc2ccccc2)n1
125 µM: [1]
62.5 µM: [2] | [3] | [4] | [6] | [7] | [8] | [9] | [10] | [11] | [12] | [14]
32 µM: [5] | [13]

CCCCCCCCNc1cnc(C(=O)NCc2ccccc2)cn1
4 µM: [2] | [4] | [5] | [6] | [7]
8 µM: [1] | [3] | [8] | [9] | [10] | [11] | [12] | [13] | [14]

CCCCCCCNc1cncc(C(=O)NCc2ccccc2)n1
16 µM: [1] | [2] | [3] | [4] | [6] | [7] | [8] | [9] | [10] | [11] | [12] | [14]
8 µM: [5] | [13]

CCCCCCNc1nccnc1C(=O)NCc1ccccc1
> 1000 µM: [3] | [6] | [8] | [10] | [12] | [14]
1000 µM: [1] | [2] | [4] | [5] | [7] | [9] | [11] | [13]

CCCCCNc1cnc(C(=O)NCc2ccccc2)cn1
16 µM: [2] | [4] | [5] | [6] | [7] | [9] | [11] | [13]
32 µM: [1] | [3] | [8] | [10] | [12] | [14]

CCCCCCCNc1cnc(C(=O)NCc2ccccc2)cn1
8 µM: [1] | [3] | [10]
4 µM: [2] | [4] | [6] | [7] | [8] | [9] | [11] | [12] | [13] | [14]
2 µM: [5]

CCCCCCCCNc1cncc(C(=O)NCc2ccccc2)n1
16 µM: [1] | [2] | [3] | [4] | [5] | [6] | [7] | [8] | [9] | [10] | [11] | [12] | [13] | [14]

CCCCCNc1nccnc1C(=O)NCc1ccccc1
> 1000 µM: [1] | [3] | [6] | [8] | [10] | [12] | [14]
1000 µM: [2] | [4] | [5] | [7] | [9] | [11] | [13]

CCCCCCNc1cnc(C(=O)NCc2ccccc2)cn1
4 µM: [2] | [4] | [5] | [6] | [7]
8 µM: [1] | [3] | [8] | [9] | [10] | [11] | [12] | [13] | [14]

NNC(=O)c1ccncc1 [ISONIAZID]
16 µM: [1] | [2] | [3] | [4] | [5] | [6] | [7] | [9] | [11] | [12] | [13] | [14]
32 µM: [8] | [10]
